What all share (experiment): radiometric filter-binding kinase assay, Kinaseprofiler
Assay [1] deals with MAPK9 (human), P45984 [S51N]. Conditions: ATP 45 µM.
In assay [2] the test system is EPHB2 (human), P29323 [A848S/K918E]. To be noted: ATP 10 µM.
For assay [3], the system named is DDR2 (human), Q16832 [S642A]. To be noted: ATP 200 µM.
The next assay has as its target CDK7 CCNH MNAT1 (human) (UniProt P50613+P51948+P51946). Conditions: compound 10.0 µM; ATP 90 µM.
The target of a further assay is MTOR FKBP1A (human) (UniProt P42345+P62942). Conditions: ATP 45 µM.
Chain of MTOR FKBP1A (human) (P62942 whole entry, looked up, other chains not shown): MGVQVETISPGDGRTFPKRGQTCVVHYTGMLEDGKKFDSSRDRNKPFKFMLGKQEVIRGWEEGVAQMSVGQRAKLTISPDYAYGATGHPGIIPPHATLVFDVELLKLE
For assay [4], the target named is PRKAA2 PRKAB1 PRKAG1 (human) (UniProt P54619+P54646+Q9Y478). To be noted: ATP 45 µM.
Chain of PRKAA2 PRKAB1 PRKAG1 (human) (P54619 whole entry, looked up): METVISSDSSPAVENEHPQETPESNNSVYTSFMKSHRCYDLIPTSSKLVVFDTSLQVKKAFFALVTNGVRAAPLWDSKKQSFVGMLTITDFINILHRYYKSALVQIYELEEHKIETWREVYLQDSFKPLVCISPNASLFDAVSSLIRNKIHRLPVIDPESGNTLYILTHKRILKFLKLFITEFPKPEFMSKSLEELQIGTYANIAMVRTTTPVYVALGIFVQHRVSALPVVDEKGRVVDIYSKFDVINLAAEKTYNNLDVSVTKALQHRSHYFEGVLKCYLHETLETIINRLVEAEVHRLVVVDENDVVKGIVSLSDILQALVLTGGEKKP
Chain of PRKAA2 PRKAB1 PRKAG1 (human) (P54646 whole entry, looked up): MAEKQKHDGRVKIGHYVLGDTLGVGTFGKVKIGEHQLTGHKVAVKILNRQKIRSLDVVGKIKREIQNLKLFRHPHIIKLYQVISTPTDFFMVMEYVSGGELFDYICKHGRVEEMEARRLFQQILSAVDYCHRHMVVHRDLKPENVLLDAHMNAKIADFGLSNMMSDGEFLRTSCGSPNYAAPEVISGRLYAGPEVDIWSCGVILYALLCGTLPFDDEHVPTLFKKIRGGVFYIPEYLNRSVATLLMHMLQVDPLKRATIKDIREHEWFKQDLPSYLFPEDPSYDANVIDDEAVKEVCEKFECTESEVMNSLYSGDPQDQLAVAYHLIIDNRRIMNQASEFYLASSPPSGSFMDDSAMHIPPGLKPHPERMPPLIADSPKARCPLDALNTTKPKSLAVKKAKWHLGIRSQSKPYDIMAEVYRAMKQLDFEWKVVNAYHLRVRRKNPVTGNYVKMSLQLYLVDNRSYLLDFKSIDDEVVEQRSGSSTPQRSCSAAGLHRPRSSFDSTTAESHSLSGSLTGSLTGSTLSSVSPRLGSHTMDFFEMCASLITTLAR
Chain of PRKAA2 PRKAB1 PRKAG1 (human) (Q9Y478 whole entry, looked up): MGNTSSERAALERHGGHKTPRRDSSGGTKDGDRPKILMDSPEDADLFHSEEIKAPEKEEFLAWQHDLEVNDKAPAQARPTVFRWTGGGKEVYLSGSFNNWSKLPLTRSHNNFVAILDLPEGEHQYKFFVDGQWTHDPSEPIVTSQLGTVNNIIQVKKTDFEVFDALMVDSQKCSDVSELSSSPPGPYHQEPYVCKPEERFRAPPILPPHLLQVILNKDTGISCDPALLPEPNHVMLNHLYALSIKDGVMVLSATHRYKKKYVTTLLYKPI
For a further assay, the target named is CDK2 CCNA2 (human) (UniProt P24941+P20248). Conditions: ATP 45 µM.
Chain of CDK2 CCNA2 (human) (P20248 whole entry, looked up, other chains not shown): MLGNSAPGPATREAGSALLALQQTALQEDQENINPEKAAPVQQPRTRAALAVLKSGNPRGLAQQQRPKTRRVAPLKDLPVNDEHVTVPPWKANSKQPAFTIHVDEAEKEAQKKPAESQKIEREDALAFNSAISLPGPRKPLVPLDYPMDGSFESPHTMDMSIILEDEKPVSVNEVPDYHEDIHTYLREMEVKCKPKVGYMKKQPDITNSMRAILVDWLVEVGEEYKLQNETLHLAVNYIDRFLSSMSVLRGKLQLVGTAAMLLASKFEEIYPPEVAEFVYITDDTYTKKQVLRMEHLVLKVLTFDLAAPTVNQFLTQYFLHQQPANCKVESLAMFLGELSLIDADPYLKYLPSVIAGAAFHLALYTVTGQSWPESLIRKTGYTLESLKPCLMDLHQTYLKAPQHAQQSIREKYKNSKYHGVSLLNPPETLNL
The target of another assay is CDK3 CCNE1 (human) (UniProt Q00526+P24864). Conditions: ATP 200 µM.
Chain of CDK3 CCNE1 (human) (P24864 whole entry, looked up): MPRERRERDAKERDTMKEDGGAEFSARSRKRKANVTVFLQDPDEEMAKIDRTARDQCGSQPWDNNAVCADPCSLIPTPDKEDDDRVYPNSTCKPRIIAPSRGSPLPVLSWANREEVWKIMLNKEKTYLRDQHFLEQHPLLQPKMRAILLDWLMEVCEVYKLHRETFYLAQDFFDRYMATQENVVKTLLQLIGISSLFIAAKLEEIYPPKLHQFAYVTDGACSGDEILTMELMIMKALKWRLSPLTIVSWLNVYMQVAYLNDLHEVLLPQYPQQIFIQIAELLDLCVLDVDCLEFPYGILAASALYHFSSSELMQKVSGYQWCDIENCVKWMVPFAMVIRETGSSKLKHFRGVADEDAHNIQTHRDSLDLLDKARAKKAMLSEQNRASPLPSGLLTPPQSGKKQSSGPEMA
Chain of CDK3 CCNE1 (human) (Q00526 whole entry, looked up): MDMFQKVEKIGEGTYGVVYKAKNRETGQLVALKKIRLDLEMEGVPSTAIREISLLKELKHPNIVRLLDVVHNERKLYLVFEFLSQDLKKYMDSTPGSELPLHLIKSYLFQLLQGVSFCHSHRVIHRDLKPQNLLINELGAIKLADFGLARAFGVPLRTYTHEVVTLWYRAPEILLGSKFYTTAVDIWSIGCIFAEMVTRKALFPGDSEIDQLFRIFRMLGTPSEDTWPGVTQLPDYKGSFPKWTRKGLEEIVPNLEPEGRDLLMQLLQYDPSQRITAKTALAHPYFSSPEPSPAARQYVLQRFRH
The next assay concerns the target CDK2 CCNE1 (human) (UniProt P24941+P24864). To be noted: ATP 120 µM.

Chain of DDR2 (human), Q16832 [S642A] (Q16832 whole entry, looked up, stated change not applied): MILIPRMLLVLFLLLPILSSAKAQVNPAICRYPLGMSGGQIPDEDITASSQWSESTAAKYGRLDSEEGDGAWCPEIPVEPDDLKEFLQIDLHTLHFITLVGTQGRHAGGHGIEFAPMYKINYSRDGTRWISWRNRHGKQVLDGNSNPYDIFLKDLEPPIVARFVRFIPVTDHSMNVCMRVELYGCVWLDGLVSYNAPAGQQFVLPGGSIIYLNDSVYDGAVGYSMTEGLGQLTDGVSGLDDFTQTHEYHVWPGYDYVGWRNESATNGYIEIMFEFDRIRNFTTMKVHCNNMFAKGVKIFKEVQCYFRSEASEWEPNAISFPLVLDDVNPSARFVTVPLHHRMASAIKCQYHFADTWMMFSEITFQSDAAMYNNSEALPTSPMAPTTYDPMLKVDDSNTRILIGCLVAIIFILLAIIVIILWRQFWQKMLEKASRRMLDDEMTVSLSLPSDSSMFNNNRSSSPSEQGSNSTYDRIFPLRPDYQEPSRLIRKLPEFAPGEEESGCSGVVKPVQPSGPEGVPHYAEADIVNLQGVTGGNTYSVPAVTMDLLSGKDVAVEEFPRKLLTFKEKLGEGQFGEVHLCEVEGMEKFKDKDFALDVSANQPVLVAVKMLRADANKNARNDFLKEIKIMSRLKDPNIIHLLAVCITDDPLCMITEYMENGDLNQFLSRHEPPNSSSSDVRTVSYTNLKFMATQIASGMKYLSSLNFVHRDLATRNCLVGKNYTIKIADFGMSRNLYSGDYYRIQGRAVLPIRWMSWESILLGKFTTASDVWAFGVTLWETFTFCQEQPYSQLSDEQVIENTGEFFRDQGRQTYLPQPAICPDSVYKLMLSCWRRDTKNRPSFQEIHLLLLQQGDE
Chain of CDK2 CCNE1 (human) (P24864 whole entry, looked up, other chains not shown): as the sequence (P24864 whole entry, looked up) above
Chain of CDK7 CCNH MNAT1 (human) (P50613 whole entry, looked up): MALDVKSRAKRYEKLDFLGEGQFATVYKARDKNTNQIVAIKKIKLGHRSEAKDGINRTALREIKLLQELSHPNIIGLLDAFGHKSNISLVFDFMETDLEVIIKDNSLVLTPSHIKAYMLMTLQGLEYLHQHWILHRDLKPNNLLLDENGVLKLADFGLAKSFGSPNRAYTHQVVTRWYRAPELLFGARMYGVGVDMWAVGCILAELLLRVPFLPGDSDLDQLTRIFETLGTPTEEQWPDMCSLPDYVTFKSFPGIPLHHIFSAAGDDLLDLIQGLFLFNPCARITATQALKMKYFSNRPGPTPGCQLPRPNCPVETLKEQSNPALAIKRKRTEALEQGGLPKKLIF
Chain of CDK7 CCNH MNAT1 (human) (P51946 whole entry, looked up): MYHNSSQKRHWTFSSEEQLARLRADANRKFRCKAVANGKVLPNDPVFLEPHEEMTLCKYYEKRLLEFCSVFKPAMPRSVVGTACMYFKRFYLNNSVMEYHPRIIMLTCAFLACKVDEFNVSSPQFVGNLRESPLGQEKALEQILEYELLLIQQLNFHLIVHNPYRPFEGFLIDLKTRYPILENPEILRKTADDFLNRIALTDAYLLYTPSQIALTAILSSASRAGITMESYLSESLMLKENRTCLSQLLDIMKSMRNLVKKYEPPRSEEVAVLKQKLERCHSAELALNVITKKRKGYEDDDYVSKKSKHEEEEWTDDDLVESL
Chain of CDK7 CCNH MNAT1 (human) (P51948 whole entry, looked up): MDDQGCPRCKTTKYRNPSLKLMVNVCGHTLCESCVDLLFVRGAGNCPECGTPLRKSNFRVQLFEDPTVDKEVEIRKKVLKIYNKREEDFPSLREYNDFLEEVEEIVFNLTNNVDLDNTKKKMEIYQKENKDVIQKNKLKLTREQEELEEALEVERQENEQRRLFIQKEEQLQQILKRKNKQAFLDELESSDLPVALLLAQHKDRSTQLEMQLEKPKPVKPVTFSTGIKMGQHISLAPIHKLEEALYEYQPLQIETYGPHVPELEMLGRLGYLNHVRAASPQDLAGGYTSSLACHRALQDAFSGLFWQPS

Consider `O=C1Nc2ccccc2/C1=C1\Nc2ccccc2\C1=N/O`, for which the residual activity was determined as 55% in assay [1] (compound 1.0 µM); 17% in assay [1] (compound 10.0 µM); 91% in assay [2] (compound 1.0 µM); 13% in assay [2] (compound 10.0 µM); 94% in assay [3] (compound 1.0 µM); 87% in assay [3] (compound 10.0 µM).
As for `COC(=O)[C@]1(O)C[C@@H]2O[C@@]1(C)n1c3ccccc3c3c4c(c5c6ccccc6n2c5c31)C(=O)NC4`, the residual activity in [1] (compound 10.0 µM) is -11%.
Regarding `CN[C@@H]1C[C@H]2O[C@@](C)([C@@H]1OC)n1c3ccccc3c3c4c(c5c6ccccc6n2c5c31)C(=O)NC4`, the residual activity in assay [1] (compound 1.0 µM) stood at 52%.
As to `O=C(Nc1cccc(Nc2nccc(Nc3cccc(C(F)(F)F)c3)n2)c1)C1CC1`, the residual activity in assay [3] (compound 10.0 µM) turned out to be 35%.
Regarding `O=C1c2ccccc2-c2n[nH]c3cccc1c23`, the residual activity in assay [1] (compound 1.0 µM) is 26%; in assay [1] (compound 10.0 µM), -6%; in [2] (compound 1.0 µM) it was 101%; in [2] (compound 10.0 µM), 95%; in assay [3] (compound 1.0 µM) it was 93%; in assay [3] (compound 10.0 µM), 92%.
On to `CO[C@H]1[C@@H](OC)C[C@H](C)[C@@H](OC)C2=CC(=O)C=C(NC(=O)/C(C)=C\C=C/[C@H](OC)[C@@H](OC(N)=O)/C(C)=C\[C@@H]1C)C2=O`, for which the residual activity on CDK7 CCNH MNAT1 (human) worked out at 101%; at MTOR FKBP1A (human) (compound 1.0 µM) it was 77%; on MTOR FKBP1A (human) (compound 10.0 µM), 89%; in assay [4] (compound 1.0 µM) it was 92%; in assay [4] (compound 10.0 µM), 78%; on CDK2 CCNA2 (human) (compound 1.0 µM) it was 138%. For the same compound, the residual activity was determined as 83% on CDK2 CCNA2 (human) (compound 10.0 µM); 100% at CDK3 CCNE1 (human) (compound 1.0 µM); 87% at CDK3 CCNE1 (human) (compound 10.0 µM); 104% on CDK2 CCNE1 (human) (compound 1.0 µM); 91% at CDK2 CCNE1 (human) (compound 10.0 µM).

The values above are taken from the kinase profiling compilation of Christmann-Franck et al. (2016).
